Reference: patent publication US9497963B2, “Methods and compositions for control of gypsy moth, Lymantria dispar” (Simon Fraser University, priority 2008, dated 2016)

Assays:
male gypsy moth antenna = experiment: EAG effects of 3c{1,3} with (+)-disparlure at different ratios (Example 14); design: species or system Lymantria dispar; conditions: for STI (short-term inhibition): mixture relative to first puff of pure (+)-disparlure
From the text: The compound has the following effects in the EAG at the following ratios: […]

[1] = system: male gypsy moth antennae response to pheromone (+)-1 with plant odors; experiment: Effect on mixed pheromone/plant odorant stimulus, EAG (Example 8, second objective); design: species or system Lymantria dispar
Method: A second objective for this experiment was to determine whether the oak volatiles, methyl eugenol and 1-hexanol, can enhance the antennal response to (+)-1 and whether the mixed pheromone/plant odorant stimulus can be inhibited by compound 3c{2,3} or DEET. The puff order was: i) air, ii) pure (+)-1 (100 ng), iii) (+)-1 (100 ng) and plant odorant (1 μg for methyl eugenol and 100 μg for 1-hexanol), iv) (+)-1 and plant odorant as in iii+antagonist (100 μg), v) same as in iii. Depolarizations were corrected for the air response as in Eq. 1 and the short-term effects were calculated for puff iii relative to puff ii, and for puff iv relative to puff ii. Long-term effects were calculated for puff v relative to puff iii (for LTI of the mixed pheromone/plant odorant plume) and for puff v relative to puff ii (to determine whether long-term effects of the plant odorant and of the antagonist cancel).

[2] = plant synergist 1-hexanol 100 μg
[3] = plant synergist methyl eugenol 1 μg

Row | Compound | STI (short-term inhibition) (male gypsy moth antenna; 100 ng (+)-disparlure + 1 μg 3c{1,3}, ratio 1:10 by mass) | STI (short-term inhibition) (male gypsy moth antenna; 100 ng (+)-disparlure + 10 μg 3c{1,3}, ratio 1:100 by mass) | STI (short-term inhibition) (male gypsy moth antenna; 100 ng (+)-disparlure + 100 μg 3c{1,3}, ratio 1:1000 by mass) | LTI (long-term inhibition) (male gypsy moth antenna; (+)-disparlure puff immediately after last mixed puff (1:1000 ratio), relative to first (+)-disparlure reference puff) | short-term effect with plant synergist + antagonist ([1]; (+)-1 100 ng + 1-hexanol 100 μg + antagonist 100 μg) | short-term effect with plant synergist + antagonist ([1]; (+)-1 100 ng + methyl eugenol 1 μg + antagonist 100 μg) | long-term effect on (+)-1 response [1, 2] | long-term effect on the mixed (+)-1/plant odor plumes [1, 2] | long-term effect on (+)-1 response [1, 3] | long-term effect on the mixed (+)-1/plant odor plumes [1, 3]
1 | CCCOc1ccc(OC)cc1 [3c{1,3}, 1-methoxy-4-propoxy-benzene] | 28 ± 16 (6) | −2 ± 5 (6) | 48 ± 14 (6) | 39 ± 12 (6) |  |  |  |  |  | 
2 | CCCOc1ccc(OCC)cc1 [3c{2,3}, 1-ethoxy-4-propoxy benzene] |  |  |  |  | −99 ± 60 (5) | −125 ± 95 (4) | 20 ± 18 (5) | 5 ± 24 (5) | 12 ± 33 (4) | 11 ± 47 (4)
